This passage reports Activity and IC50 results from ChEMBL document CHEMBL3822449, “[Dmt(1)]DALDA analogues modified with tyrosine analogues at position 1” (Bioorg Med Chem Lett, 2016).

By IC50 is commonly meant the midpoint of a concentration-inhibition curve.

Each structure is given as a SMILES string.

Data set [1] is described as follows: Antioxidant activity assessed as DPPH radical scavenging activity incubated for 30 mins. It counts as physicochemical. The conditions noted are these: 0.5 h.
The target in data set [2] is Delta-type opioid receptor (Mus musculus, UniProt P32300). As to the kind of experiment: Agonist activity at delta opioid receptor in albino mouse vas deferens assessed as inhibition of electrically-stimulated muscle contraction. Type of data set: tissue-based.
Chain of Delta-type opioid receptor (P32300 whole entry): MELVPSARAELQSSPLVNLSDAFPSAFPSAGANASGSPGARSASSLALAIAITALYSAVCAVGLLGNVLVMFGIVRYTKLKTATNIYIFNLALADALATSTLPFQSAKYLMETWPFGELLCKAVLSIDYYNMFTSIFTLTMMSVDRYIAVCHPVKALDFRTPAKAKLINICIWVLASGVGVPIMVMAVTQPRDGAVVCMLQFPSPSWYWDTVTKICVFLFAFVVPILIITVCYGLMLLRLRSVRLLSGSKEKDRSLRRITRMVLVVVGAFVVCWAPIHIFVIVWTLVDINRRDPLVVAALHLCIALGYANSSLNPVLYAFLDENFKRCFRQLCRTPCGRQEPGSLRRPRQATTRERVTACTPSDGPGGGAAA

Consider `Cc1cc(O)cc(C)c1C[C@H](N)C(=O)N[C@H](CCCNC(=N)N)C(=O)N[C@@H](Cc1ccccc1)C(=O)N[C@@H](CCCCN)C(N)=O`, for which the Activity in data set [1] was found to be 31.64%.

Regarding `NCCCC[C@H](NC(=O)[C@H](Cc1ccccc1)NC(=O)[C@@H](CCCN=C(N)N)NC(=O)[C@@H](N)Cc1ccc(O)cc1)C(N)=O`, the IC50 in data set [2] stood at 0.781 µM.
